ChEMBL document CHEMBL1201862, “PubChem BioAssay data set” (2004)
Values joined by “and” are separate entries in the source; they are usually repeats but may differ in a detail not shown here. Equal entries are not always repeated.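 Each compound was tested at five concentrations against cells in 96-well plates for 48 hours. The concentration for 50% growth inhibition is given as GI50.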 Active and inactive are the calls of the source. Rule as the data show it: active = GI50 up to about 1.1 µM and inactive = higher.

Columns and labels:
Test in all cases: NCI tumour cell line growth inhibition, 48 h
[1] = system: DMS-114
[2] = system: DLD-1
[3] = system: M19-MEL
[4] = system: KM-20L2
[5] = system: HOP-18
[6] = system: T47D
[7] = system: DU-145
[8] = system: MDA-N

Row | SMILES | GI50 [1] | GI50 [2] | GI50 [3] | GI50 [4] | GI50 [5] | GI50 [6] | GI50 [7] | GI50 [8]
1 | O=C1OC(c2ccccc2)=N/C1=C/NC(Cc1c[nH]cn1)C(=O)O (stereo not given) | > 100 µM (inactive) | > 100 µM (inactive) | > 100 µM (inactive) | > 100 µM (inactive) |  |  |  | 
2 | CCCCCCC(=O)C/C(=N/NC(N)=S)C(=O)NC1C2CC3CC(C2)CC1C3 (stereo not given) |  | > 100 µM (inactive) | > 100 µM (inactive) | > 100 µM (inactive) |  |  |  | 
3 | COc1ccc2c(c1)c(Cc1c(C)n(C)c3ccc(OC)cc13)c(C)n2C | > 100 µM (inactive) | > 100 µM (inactive) | > 100 µM (inactive) | > 100 µM (inactive) | > 100 µM (inactive) |  |  | 
4 | O=C(NN1C(=O)C(Cl)C1c1c(O)ccc2ccccc12)c1ccccc1O (stereo not given) | > 100 µM (inactive) | > 100 µM (inactive) | > 100 µM (inactive) |  | > 100 µM (inactive) |  |  | 
5 | CN(C)C(=S)C(Cl)(c1ccccc1)c1ccccc1 |  |  |  |  |  | 22.4 µM (inactive) | 40.6 µM (inactive) | 47.6 µM (inactive)
6 | COc1ccc(-n2c(N)c(C#N)[nH]c2=O)cc1 |  |  |  |  |  | > 10 µM (inactive) | > 10 µM (inactive) | > 10 µM (inactive)
7 | O=C(Nc1sccc1S(=O)(=O)c1ccccc1)c1cccnc1 |  |  |  |  |  | 70.6 µM (inactive) | 39.2 µM (inactive) | 1.02 µM (active)
8 | O/N=N/c1ccccn1.OCC1OC2OC3C(CO)OC(OC4C(CO)OC(OC5C(CO)OC(OC6C(CO)OC(OC7C(CO)OC(OC1C(O)C2O)C(O)C7O)C(O)C6O)C(O)C5O)C(O)C4O)C(O)C3O (stereo not given) |  |  |  |  |  | > 100 µM (inactive) | > 100 µM (inactive) | 19.9 µM (inactive)
9 | FC(F)(F)c1nc2cc(SSc3cc4nc(C(F)(F)F)[nH]c4cc3Cl)c(Cl)cc2[nH]1 |  |  |  |  |  |  | > 100 µM (inactive) | 
10 | C[C@@]12C[C@@H](c3ccccc3O1)N1CCCCSC1=N2 |  |  |  |  |  | > 100 µM (inactive) | > 100 µM (inactive) | > 100 µM (inactive)
11 | Cc1ccc(Nc2n[nH]c(=S)s2)cc1 |  |  |  |  |  | 96.6 µM (inactive) | > 100 µM (inactive) | 59.4 µM (inactive)
12 | CCCSc1ccc2[nH]c(N3C(=O)/C(=C/c4ccco4)N=C3c3ccccc3)cc2c1 |  |  |  |  |  | 27.6 µM (inactive) | > 50 µM (inactive) | 6 µM (inactive)
13 | Cc1cc(Oc2cnc(=O)[nH]c2)cs1 |  |  |  |  |  | > 100 µM (inactive) | > 100 µM (inactive) | > 100 µM (inactive)
14 | CCOC(=O)C(SCCO)C(C(=O)OCC)n1ccc(N)nc1=O (stereo not given) |  |  |  |  |  | > 100 µM (inactive) | > 100 µM (inactive) | > 100 µM (inactive)
15 | N#Cc1nc(-c2ccco2)oc1N |  |  |  |  |  | > 10 µM (inactive) | > 10 µM (inactive) | > 10 µM (inactive)
16 | O=C(O)C1CCCN1Cc1ccc2c(c1)OCO2 (stereo not given) |  |  |  |  |  | > 100 µM (inactive) | > 100 µM (inactive) | > 100 µM (inactive)
17 | CCC1CCN=C(Cn2cc(C)c(=O)[nH]c2=O)N1 (stereo not given) |  |  |  |  |  | > 100 µM (inactive) | > 100 µM (inactive) | > 100 µM (inactive)
18 | CCCCCC/C=C1\CCC(CN2CCOCC2)C1=O (stereo not given) | 17.3 µM (inactive) | 10.5 µM (inactive) |  | 20.2 µM (inactive) | 0.807 µM (active) |  |  | 
19 | CCN(CC)c1ncnc2c1ncn2CCNC(CO)(CO)CO |  |  |  |  |  | > 100 µM (inactive) | > 100 µM (inactive) | > 100 µM (inactive)
20 | CNC(=S)N/N=C(\C)c1cc(OC)c(OC)cc1O |  |  |  |  |  | > 100 µM (inactive) | > 100 µM (inactive) | > 100 µM (inactive)
21 | C[C@@]1(CO)[C@H](O)CC[C@@]2(C)[C@H]1CC[C@H]1C[C@@H]3C[C@@]12CC[C@@]3(O)COC(=O)CN |  |  |  |  | > 76 µM (inactive) | 11.4 µM (inactive) | 2.67 µM (inactive) | 16.9 µM (inactive)
22 | CC(=O)O[C@H]1CC2C(C3CC[C@H](C(C)CCC(N)=O)[C@]31C)[C@H](OC(C)=O)C[C@@H]1CC3(CC[C@]21C)OOC1(CCC(C)CC1)OO3 (stereo not given in full) |  |  |  |  |  | 1.49 µM (inactive) and 2.01 µM (inactive) |  | 1.87 µM (inactive) and 2.07 µM (inactive)
23 | CCN(CC)C(=O)N1CN(c2ccccc2)C2(CCN(CCCC3(c4ccc(F)cc4)OCCO3)CC2)C1=O |  |  |  |  |  | 5.9 µM (inactive) | 12.2 µM (inactive) | 19.1 µM (inactive)
24 | COc1ccc(/C=C2\NC(=S)N(CN3CCCCC3)C2=O)cc1 |  |  |  |  |  |  | 71 µM (inactive) | 70.1 µM (inactive)
25 | CC1(C)COC(c2c(-c3ccccc3)noc2C[S+]([O-])c2ccccc2)=N1 (stereo not given) | 21.9 µM (inactive) | > 100 µM (inactive) | 45.1 µM (inactive) | 46.3 µM (inactive) | 24.9 µM (inactive) |  |  | 
26 | Nc1nc2[nH]cnc2c(=O)[nH]1 |  | > 100 µM (inactive) | > 100 µM (inactive) | > 100 µM (inactive) | > 100 µM (inactive) |  |  | 
27 | Nc1nc2c(ncn2Cc2ccc(CO)cc2)c(=O)[nH]1 |  |  |  |  |  | > 100 µM (inactive) | > 100 µM (inactive) | 
28 | OCCSCC(O)Cn1cnc2c(O)nc(Nc3ccccc3)nc21 (stereo not given) |  |  |  |  |  | > 100 µM (inactive) | > 100 µM (inactive) | > 100 µM (inactive)
29 | CCNc1cc2c(cc1O)CC[C@@H]1[C@@H]2CC[C@]2(C)[C@@H](O)CC[C@@H]12 |  |  |  |  |  | 6.04 µM (inactive) |  | 0.232 µM (active)
